{"source": "patent US7442671B2", "about": "“O-phenylphenol/alkoxylated amine wood protection compositions” (Contechem Inc., priority 2004, dated 2008)", "origin": "cited, not measured here"}
{"smiles": "Oc1ccccc1-c1ccccc1", "note": "[O-phenylphenol, o-phenylphenol]", "values": [{"measurement": "solubility in water", "value": "only slightly soluble in water"}]}
